Source: patent US8349577B2, “Method for evaluating blood-neural barrier permeability” (Research Foundation For Mental Hygiene, Inc., priority 2010, dated 2013)
“Also recorded” adds a separate entry of the source.

Key:
recombinant sPLA2 = assay: Continuous fluorescence PLA2 activity assay with recombinant sPLA2 (Bis-BODIPY FL C11-PC-labeled DOPC liposomes); type: biochemical; details: for Inhibition of PLA2 activity from recombinant sPLA2: recombinant sPLA2 incubated with inhibitor, FIGS. 3A-3C
Protocol: (§1) PLA2 activity assays were carried out in triplicates using a continuous fluorescent measurement. In a 96-well microplate, 5 μL lumbar CSF (or 10 μM recombinant sPLA2) was diluted in 90 μL PLA2 assay buffer (10 mM Tris-HCl, pH 7.4; 100 mM KCl; 5 mM CaCl2; 1 mM DTT). Then, 5 μL Bis-BODIPY® FL C11-PC-labeled 100% DOPC liposomes were added to each well and the microplate was immediately placed in a temperature controlled (30° C.) cytofluor multi-well plate reader series 4000 (PerSeptive Biosystems®, Foster City, Calif.). The fluorescence intensity was recorded over 90 min (91 cycles of 60 sec each) at 485 nm excitation and 530 nm emission. Finally, PLA2 activity was evaluated using linear curve fitting with Graph Prism 3.0 (GraphPad Software™, San Diego, Calif.).
(§2) Although there are currently twenty-two different PLA2 enzymes classified in five families (sPLA2, cPLA2, iPLA2, PAF-AH and lysosomal PLA2), there is currently no known tool for the specific characterization of each of these isozymes. Thus, to characterize the activity of each new PLA2 the current approach is to determine to which family the PLA2 enzyme belongs. For this purpose, a battery of inhibitors more or less specific against each PLA2 family is generally used to discriminate one family from another.
(§3) Stock solutions and serial dilutions of PLA2 inhibitors (AACOCF3, BEL and Thioetheramide-PC) were prepared in PLA2 assay buffer supplemented by 4.25 mM Triton X-100. Each assay was carried out in the absence or presence of 5 μL of the appropriate inhibitor.

[1] = tested on: PLA2 activity in lumbar CSF; assay: Continuous fluorescence PLA2 activity assay with lumbar CSF (Bis-BODIPY FL C11-PC-labeled DOPC liposomes); type: biochemical, human; details: for Inhibition of PLA2 activity from lumbar CSF: 5 μL lumbar CSF incubated with inhibitor, FIGS. 3A-3C
Protocol: as §1, §2, §3

[2] = various concentrations of calcium, FIG. 3D

Compound	Inhibition of PLA2 activity from recombinant sPLA2 (recombinant sPLA2)	Inhibition of PLA2 activity from lumbar CSF [1]	Effect of increasing calcium concentration on recombinant sPLA2 activity (recombinant sPLA2; [2])	Effect of increasing calcium concentration on PLA2 activity in lumbar CSF [1, 2]
CCCCCCCCCCCCCCCCSC[C@H](COP(=O)(O)OCC[N+](C)(C)C)NC(=O)CCCCCCCCCCCCCCC [thioetheramide-PC]	dose-dependently inhibited	strongly inhibited; also recorded: dose-dependently inhibited		
O=C1O/C(=C/Br)CCC1c1cccc2ccccc12 (centres unmarked) [BEL]	failed to do so	not and failed to do so		
CCCCC/C=C\C/C=C\C/C=C\C/C=C\CCCC(=O)C(F)(F)F [AACOCF3]	failed to do so	not and failed to do so		
calcium			increase of PLA2 activity	increase of PLA2 activity
